Reference: article PMC11822712, “Improving the Activity and Selectivity of a Scorpion-Derived Peptide, A3a, against Acinetobacter baumannii through Rational Design” (ACS Omega, 2025)
In brackets after ≈: the same amount, converted by molar mass. Like-named read-outs stand apart in the source and are kept apart here. Positions of bridges follow the written chain, without caps; N, C: chain ends. Non-standard residues stand in square brackets, D forms with d. Residues, ends and D or L forms follow the SMILES beside them. No end group written: not given here. *: point of attachment. X1 = CC[C@H](C)CCCCC(=O)*; Dab = NCC[C@H](N)C(=O)O

Assays:
E. coli ATCC 25922 = assay: microbe, parasite or virus in culture; format: cell-based, Escherichia coli; conditions: cation-adjusted MHB, OD600
A. baumannii ATCC 19606 [1] = assay: microbe, parasite or virus in culture; format: cell-based, Acinetobacter baumannii; conditions: cation-adjusted MHB, OD600
[2] = test system: K. pneumoniae ATCC BAA-1705; assay: microbe, parasite or virus in culture; format: cell-based, Klebsiella pneumoniae
E. cloacae ATCC 700323 = assay: microbe, parasite or virus in culture
Experimental: Antimicrobial activity was determined against a panel of ESKAPE pathogens. […] Bacterial colonies were picked and cultured in cation-adjusted MHB at 37 °C with 180 rpm shaking. Cultures were back-diluted to reach a starting OD600 of 0.1 and then diluted 100-fold to approximately 1 × 10^6 CFU/mL.

P. aeruginosa ATCC 27853 = assay: microbe, parasite or virus in culture; format: cell-based, Pseudomonas aeruginosa; conditions: cation-adjusted MHB, OD600
[3] = test system: S. aureus (MSSA) ATCC 25923; assay: microbe, parasite or virus in culture; format: cell-based, Staphylococcus aureus; conditions: cation-adjusted MHB, OD600
A. baumannii ATCC 19606 [4] = assay: Killing kinetics (CFU, Miles Misra method); format: cell-based, Acinetobacter baumannii; conditions: 1×, 4× and 8× MIC, A3a tested at the same concentration as A3a[R7K] (Figure 3 legend)
Experimental: Colistin (8 μg/mL) was used as a positive control. […] Following exposure, 10 μL was used from the individual wells to determine the CFUs with the Miles Misra method.[57] The limit of detection for this method was 1000 CFUs. This was done at 30 min and 2, 6, and 24 h.

HaCat cell = conditions: read-out: IC50 of HaCat cell viability; cited from earlier work
Experimental: Previously, we amidated the C-terminus of A3 to improve its activity against Gram-negative bacteria.[14] A3, the amidated analogue A3a, and the parent peptide AamAP1 were evaluated for antibacterial activity against a panel of ESKAPE pathogens.

erythrocytes = conditions: 40 μM ref 13; cited from earlier work
A. baumannii ATCC 19606 [5] = assay: Membrane permeabilization, SYTOX Green assay; format: cell-based, Acinetobacter baumannii; conditions: SYTOX Green fluorescence, 1× MIC, 0.5 and 2 h exposure; melittin 8 μM positive control; three biological repeats
Experimental: For membrane permeabilization studies, A. baumannii ATCC 19606 cells were evaluated after exposure to each peptide by measuring fluorescence. The SYTOX Green assay was undertaken according to Zeng et al.,[58] with some modifications. […] Melittin (8 μM) was used as the positive control. The fluorescence was measured every 2 min at excitation and emission wavelengths of 485 and 535 nm, respectively (Spectramax, Multimode detection platform, Molecular Devices, Austria).

[6] = approx. 1 × 10^6 CFU/mL added 1:1, 20 h, MIC = lowest concentration with growth <0.1 above background, > = no activity at highest concentration tested
[7] = same test as μg/mL value, 20 h, read-out: MIC (value in brackets)
[8] = cation-adjusted MHB, approx. 1 × 10^6 CFU/mL added 1:1, 20 h, OD600, MIC = lowest concentration with growth <0.1 above background, > = no activity at highest concentration tested
[9] = same test as μg/mL value, cation-adjusted MHB, 20 h, OD600

Compound	MIC (E. coli ATCC 25922; [6]) [µg/mL]	MIC (A. baumannii ATCC 19606 [1]; [6]) [µg/mL]	MIC [2, 8] [µg/mL]	MIC (E. cloacae ATCC 700323; [8]) [µg/mL]	MIC (P. aeruginosa ATCC 27853; [6]) [µg/mL]	MIC [3, 6] [µg/mL]	further results
CC[C@H](C)CCCCC(=O)N[C@@H](CCN)C(=O)N[C@H](C(=O)N[C@@H](CCN)C(=O)N[C@H]1CCNC(=O)[C@H]([C@@H](C)O)NC(=O)[C@H](CCN)NC(=O)[C@H](CCN)NC(=O)[C@H](CC(C)C)NC(=O)[C@@H](Cc2ccccc2)NC(=O)[C@H](CCN)NC1=O)[C@@H](C)O [polymyxin B] (X1-[Dab]T[Dab][Dab][Dab][dF]L[Dab][Dab]T; lactam 4-C (inferred); N-terminus assumed)	0.5	1	0.5	0.25	2	>32	MIC (E. coli ATCC 25922; [7]): 0.4 µM; MIC (A. baumannii ATCC 19606 [1]; [7]): 0.76 µM; MIC (value in brackets) [2, 9]: 0.4 µM (≈ 0.481 µg/mL); MIC (value in brackets) (E. cloacae ATCC 700323; [9]): 0.19 µM (≈ 0.229 µg/mL); MIC (P. aeruginosa ATCC 27853; [7]): 1.5 µM
CNC(C)C1CCC(N)C(OC2C(N)CC(N)C(OC3OCC(C)(O)C(NC)C3O)C2O)O1 (stereo not drawn) [gentamicin]	0.5	32	2	–	4	0.5	MIC (E. coli ATCC 25922; Escherichia coli, ATCC25922, same test as μg/mL value, 20 h, read-out: MIC (value in brackets)): 1 µM; MIC (A. baumannii ATCC 19606 [1]; Acinetobacter baumannii, ATCC19606, same test as μg/mL value, 20 h, read-out: MIC (value in brackets)): 67 µM; MIC ([2]; Klebsiella pneumoniae, ATCCBAA1705, 20 h, read-out: MIC (value in brackets)): 4 µM; MIC (E. cloacae ATCC 700323; Enterobacter cloacae, ATCC700323, 20 h, read-out: MIC (value in brackets)): 4 µM; MIC (E. cloacae ATCC 700323; cation-adjusted MHB, approx. 1 × 10^6 CFU/mL added 1:1, 20 h, OD600, […], > = no activity at highest concentration tested): 2 µg/mL; MIC (P. aeruginosa ATCC 27853; Pseudomonas aeruginosa, ATCC27853, same test as μg/mL value, 20 h, read-out: MIC (value in brackets)): 8 µM; MIC ([3]; Staphylococcus aureus, same test as μg/mL value, 20 h, read-out: MIC (value in brackets)): 1 µM
colistin	–	–	–	–	–	–	regrowth after 24 h in killing kinetics (A. baumannii ATCC 19606 [4]): regrowth at all of the concentrations tested
FLFSLIRKAIGGLISAFK [A3]	–	–	–	–	–	–	IC50 (HaCat cell): 59.9 µM; hemolysis (erythrocytes): 36.1%
FLFSLRKAGGLISAFK-NH2 [A3a[I(6,10)-del]]	>128	>128	>128	>128	>128	>128	–
melittin	–	–	–	–	–	–	membrane permeabilization (A. baumannii ATCC 19606 [5]): rapid membrane permeabilization
